Experiment: Stability of the crystal forms based on DSC endothermic test
Format: physicochemical
Conditions: analysis based on measurement results of a DSC endothermic test; rank order among polymorphs of compound (I)
Description: FIGS. 1, 4 and 7 show the IR (KBr) spectrum, DSC endothermic curve and X-ray diffraction pattern of the crystals, respectively.
FIGS. 2, 5 and 8 show the IR (KBr) spectrum, DSC endothermic curve and X-ray diffraction pattern of the crystals, respectively.
FIGS. 3, 6 and 9 show the […]

For `C#CCC/C(O)=C(\C#N)C(=O)Nc1ccc(C(F)(F)F)cc1` [B-form crystals, 2-cyano-3-hydroxy-N-(4-trifluoromethylphenyl) hept-2-en-6-ynamide], which “stability order of the crystal forms” value is on record?
Its value is “B-form crystals>C-form crystals>A-form crystals”.

— patent US20060217440A1, “Porcess for production of 2-cyano-3-hydroxy-n-(4-trifluoromethylphenyl)hept-2-en-6-ynamide and process for production of polymorphs thereof” (priority 2003, published 2006)
